From ChEMBL document CHEMBL1770057, “Synthesis and antibacterial activity of alaremycin derivatives for the porphobilinogen synthase” (Bioorg Med Chem Lett, 2011)

Test system: not listed separately
Test: Inhibition of Pseudomonas fluorescens porphobilinogen synthase by PBGS assay
For `CC(=O)NCC(=O)CCC(=O)O`, the IC50 was 2500 µM.
With `CC(=O)N[C@@H](C)C(=O)CCC(=O)O` the IC50 was 1100 µM.
For `O=C(O)CCC(=O)CNC(=O)CC(F)(F)F`, the IC50 was 500 µM.
`CC(=O)N[C@H](C)C(=O)CCC(=O)O` [ALAREMYCIN 2] gave an IC50 of 700 µM.
Compound `C=C(NC(=O)C(F)(F)F)C(=O)CCC(=O)O` has an IC50 of 22 µM.
With `C[C@@H](NC(=O)C(F)(F)F)C(=O)CCC(=O)O` the IC50 was 4100 µM.
In the case of `C[C@H](NC(=O)C(F)(F)F)C(=O)CCC(=O)O`, the IC50 is reported as 3000 µM.
`C=C(NC(=O)CC(F)(F)F)C(=O)CCC(=O)O` showed an IC50 of 900 µM.
For `C=C(NC(=O)CCC(F)(F)F)C(=O)CCC(=O)O`, the IC50 was 51 µM.
Work on `O=C(O)CCC(=O)CNC(=O)CCC(F)(F)F` yielded an IC50 of 1300 µM.
`O=C(O)CCC(=O)CNC(=O)C(F)(F)F` gave an IC50 of 8000 µM.
`C=C(NC(C)=O)C(=O)CCC(=O)O` [ALAREMYCIN] gave an IC50 of 2600 µM.

Test system: Pseudomonas fluorescens
Test: Ratio of IC50 of Alaremycin to IC50 of compound for Pseudomonas fluorescens porphobilinogen synthase
With `C=C(NC(=O)C(F)(F)F)C(=O)CCC(=O)O` the Ratio IC50 was 100.
Compound `C=C(NC(=O)CCC(F)(F)F)C(=O)CCC(=O)O` has a Ratio IC50 of 50.
